The target in one assay is T1, androgen receptor (AR) splicing variant AR-v7 (Homo sapiens, UniProt P10275).
T1 construct: The degradation activity of compounds on AR-v7 in 22RV1 cells; host or cells: 22RV1 cells
T1 sequence (P10275 1-644 isoform P10275-3): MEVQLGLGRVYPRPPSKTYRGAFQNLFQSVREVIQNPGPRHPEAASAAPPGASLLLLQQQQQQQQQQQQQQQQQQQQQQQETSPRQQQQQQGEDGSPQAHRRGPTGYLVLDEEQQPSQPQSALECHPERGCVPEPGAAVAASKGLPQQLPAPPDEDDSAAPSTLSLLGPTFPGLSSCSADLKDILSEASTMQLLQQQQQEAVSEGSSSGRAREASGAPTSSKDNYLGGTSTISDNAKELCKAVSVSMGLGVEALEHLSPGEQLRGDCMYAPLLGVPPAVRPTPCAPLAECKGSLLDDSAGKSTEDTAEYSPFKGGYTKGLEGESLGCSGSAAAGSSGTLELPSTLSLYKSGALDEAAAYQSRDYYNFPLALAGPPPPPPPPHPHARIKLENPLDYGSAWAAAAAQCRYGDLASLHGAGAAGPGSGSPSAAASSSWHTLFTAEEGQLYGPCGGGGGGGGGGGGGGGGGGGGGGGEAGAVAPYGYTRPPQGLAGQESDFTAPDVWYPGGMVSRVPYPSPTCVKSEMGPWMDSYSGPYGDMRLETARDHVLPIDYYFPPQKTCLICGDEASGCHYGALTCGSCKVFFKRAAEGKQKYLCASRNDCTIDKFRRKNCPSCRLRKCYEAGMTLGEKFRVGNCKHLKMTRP
Put plainly: Degradation activity on androgen receptor splicing variant AR-v7 in 22RV1 cells (ELISA). As to conditions: AR-v7 degradation in 22RV1 cells, 48 h, class symbols. The format is cell-based. A general note: An ELISA detects its analyte on a solid surface through an enzyme-linked reagent.
Compound `O=C1CCC(N2C(=O)c3ccc(N[C@H]4C[C@H](Oc5ccc(C6(c7ccc(Oc8ccc(-n9ccnn9)nn8)cc7)CC6)cc5)C4)cc3C2=O)C(=O)N1` (stereo partly shown) [Example 375, 5-(((1r,3r)-3-(4-(1-(4-((6-(1H-1,2,3-triazole-1-yl)pyridazine-3-yl)oxy)phenyl)cyclopropyl)phenoxy)cyclobutyl)amino)-2-(2,6-dioxopiperidin-3-yl)isoindolin-1,3-dione] displayed a DC50 of 11 to 100 nM.

Take `CC(C)(c1ccc(OCc2nc(-n3nccn3)ccc2F)cc1)c1ccc(O[C@H]2C[C@H](Nc3ccc4c(c3)C(=O)N(C3CCC(=O)NC3=O)C4=O)C2)cc1` (stereo partly shown) [Example 284]: the DC50 fell in the range of 11 to 100 nM.

For the compound `CCS(=O)(=O)Nc1nccc(COc2ccc(C(C)(C)c3ccc(OCCCCCCCCOCCCCNc4ccc5c(c4)C(=O)N(C4CCC(=O)NC4=O)C5=O)cc3)cc2)n1` (stereo not shown) [Example 44], the DC50 lay in the range of 101 to 1000 nM.

Regarding `CC(C)(c1ccc(OCc2ccnc(N3CCN(CCO)CC3)n2)cc1)c1ccc(O[C@H]2C[C@@H](Nc3ccc4c(c3)C(=O)N(C3CCC(=O)NC3=O)C4=O)C2)cc1` (stereo partly shown) [Example 241, 2-(2,6-dioxopiperidin-3-yl)-5-(((1s,3s)-3-(4-(2-(4-((2-(4-(2-hydroxylethyl)piperazin-1-yl)pyrimidin-4-yl)methoxy)phenyl)propan-2-yl)phenoxy)cyclobutyl)amino)isoindolin-1,3-dione], the 50% degradation concentration (DC50) lay in the range of 11 to 100 nM.

`CC(=O)Nc1nccc(COc2ccc(C(C)(C)c3ccc(OCCCCCCCCOCCCCNc4ccc5c(c4)C(=O)N(C4CCC(=O)NC4=O)C5=O)cc3)cc2)n1` (stereo not shown) [Example 26, N-(4-((4-(2-(4-((8-(4-((2-(2,6-dioxopiperidin-3-yl)-1,3-dioxoisoindolin-5-yl)amino)butoxy)octyl)oxy)phenyl)propan-2-yl)phenoxy)methyl)pyrimidin-2-yl)acetamide] had a DC50 of 1000 to 5000 nM.

For the compound `COc1cnc(Oc2ccc(C(C)(C)c3ccc(O[C@H]4C[C@H](Nc5ccc6c(c5)C(=O)N(C5CCC(=O)NC5=O)C6=O)C4)cc3)cc2)cn1` (stereo partly shown) [Example 552, 2-(2,6-dioxopiperidin-3-yl)-5-(((1r,3r)-3-(4-(4-((5-methoxypyrazin-2-yl)oxy)phenyl)propan-2-yl)phenoxy)amino)isoindolin-1,3-dione], the 50% degradation concentration (DC50) is 11 to 100 nM.

Turning to `CC(C)(c1ccc(OCCCNc2ccc3c(c2)C(=O)N(C2CCC(=O)NC2=O)C3=O)cc1)c1ccc(OCc2ccnc(NS(C)(=O)=O)n2)cc1` (stereo not shown) [Example 37, N-(4-((4-(2-(4-(3-((2-(2,6-dioxopiperidin-3-yl)-1,3-dioxoisoindolin-5-yl)amino)propoxy)phenyl)propan-2-yl)phenoxy)methyl)pyrimidin-2-yl)methanesulfonamide], the DC50 lay in the range of 1000 to 5000 nM.

Consider `Cc1cncc(Oc2ccc(C(C)(C)c3ccc(O[C@H]4C[C@@H](Nc5ccc6c(c5)C(=O)N(C5CCC(=O)NC5=O)C6=O)C4)cc3)cc2)n1` (stereo partly shown) [Example 537], for which the DC50 fell in the range of 11 to 100 nM.

For `CC(C)(c1ccc(OCCCCCCCCOCCN2CCN(c3ccc4c(c3)C(=O)N(C3CCC(=O)NC3=O)C4=O)CC2)cc1)c1ccc(OCc2ccnc(NS(C)(=O)=O)n2)cc1` (stereo not shown) [Example 1, N-(4-((4-(2-(4-((8-(2-(4-(2-(2,6-dioxopiperidin-3-yl)-1,3-dioxoisoindolin-5-yl)piperazin-1-yl)ethoxy)octyl)oxy)phenyl)propan-2-yl)phenoxy)methyl)pyrimidin-2-yl)methanesulfonamide], the DC50 was 101 to 1000 nM.

`CC1CN(c2nccc(COc3ccc(C(C)(C)c4ccc(OCCCCCCCCOCCCCNc5ccc6c(c5)C(=O)N(C5CCC(=O)NC5=O)C6=O)cc4)cc3)n2)C1` (stereo not shown) [Example 63] showed a DC50 of 1000 to 5000 nM.

`CC(C)(c1ccc(Oc2nc(N3CC4(COC4)C3)ncc2F)cc1)c1ccc(O[C@H]2C[C@H](Nc3ccc4c(c3)C(=O)N(C3CCC(=O)NC3=O)C4=O)C2)cc1` (stereo partly shown) [Example 247] had a DC50 of 11 to 100 nM.

Compound `CC(C)(c1ccc(Oc2ccc(-n3cccn3)nc2)cc1)c1ccc(O[C@H]2C[C@@H](Nc3ccc4c(c3)C(=O)N(C3CCC(=O)NC3=O)C4=O)C2)cc1` (stereo partly shown) [Example 542] yielded a DC50 of 11 to 100 nM.

`CN1CCN(c2ncc3c(n2)CN(c2ccc(C(C)(C)c4ccc(O[C@H]5C[C@@H](Nc6ccc7c(c6)C(=O)N(C6CCC(=O)NC6=O)C7=O)C5)cc4)cc2)CC3)CC1` (stereo partly shown) [Example 191] displayed a DC50 of 11 to 100 nM.

With `CC(C)(c1ccc(OCCCCCCCOCCCOCCCNc2cccc3c2C(=O)N(C2CCC(=O)NC2=O)C3=O)cc1)c1ccc(OCc2ccnc(NS(C)(=O)=O)n2)cc1` (stereo not shown) [Example 23], the DC50 was 1000 to 5000 nM.

The compound `CC(=O)c1nccc(COc2ccc(C(C)(C)c3ccc(O[C@H]4CC[C@H](Nc5ccc6c(c5)C(=O)N(C5CCC(=O)NC5=O)C6=O)CC4)cc3)cc2)n1` (stereo partly shown) [Example 353, 5-(((1r,4r)-4-(4-(2-(4-((2-acetylpyrimidin-4-yl)methoxy)phenyl)isopropan-2-yl)phenoxy)cyclohexyl)amino)-2-(2,6-dioxopiperidin-3-yl)isoindolin-1,3-dione] displayed a DC50 of 1000 to 5000 nM.

`Cc1nc(-c2ccc(Oc3ccc(C(C)(C)c4ccc(OC5CC(Nc6ccc7c(c6)C(=O)N(C6CCC(=O)NC6=O)C7=O)C5)cc4)cc3)cn2)no1` (stereo not shown) [Example 543, 2-(2,6-dioxopiperidin-3-yl)-5-(1s,3s)-3-(4-(2-(4-(6-(5-methyl-1,2,4-oxadiazol-3-yl)pyridin-3-yl)oxy)phenyl)propan-2-yl)phenoxy)cyclobutyl)amino) isoindolin-1,3-dione]: the DC50 fell in the range of 11 to 100 nM.

As for `CC(C)(c1ccc(Oc2cc(-n3nccn3)ncn2)cc1)c1ccc(O[C@H]2C[C@@H](Nc3ccc4c(c3)C(=O)N(C3CCC(=O)NC3=O)C4=O)C2)cc1` (stereo partly shown) [Example 577], the DC50 was in the range of 11 to 100 nM.

Consider `CC(C)(c1ccc(Oc2cnc(N3CC4(COC4)C3)cn2)cc1)c1ccc(O[C@H]2C[C@H](Nc3ccc4c(c3)C(=O)N(C3CCC(=O)NC3=O)C4=O)C2)cc1` (stereo partly shown) [Example 573], for which the half-maximal degradation concentration (DC50) is 11 to 100 nM.

`CC(C)(c1ccc(OCCNC(=O)c2ccc3c(c2)C(=O)N(C2CCC(=O)NC2=O)C3=O)cc1)c1ccc(OCc2ccnc(N3CC4(COC4)C3)n2)cc1` (stereo not shown) [Example 114, N-(2-(4-(2-(4-((2-(2-oxa-6-azaspiro[3.3]heptan-6-yl)pyrimidin-4-yl)methoxy)phenyl)propan-2-yl)phenoxy)ethyl)-2-(2,6-dioxopiperidin-3-yl)-1,3-dioxoisoindolin-5-carbonylamine] displayed a DC50 of 1000 to 5000 nM.

With `CC(C)(c1ccc(Oc2ncc(-n3nccn3)cn2)cc1)c1ccc(O[C@H]2C[C@@H](Nc3ccc4c(c3)C(=O)N(C3CCC(=O)NC3=O)C4=O)C2)cc1` (stereo partly shown) [Example 329], the DC50 was 11 to 100 nM.

With `CC(C)(c1ccc(Oc2ccnc(-n3nccn3)n2)cc1)c1ccc(O[C@H]2C[C@H](Nc3ccc4c(c3)C(=O)N(C3CCC(=O)NC3=O)C4=O)C2)cc1` (stereo partly shown) [Example 469, 5-(((1r,3r)-3-(4-(2-(4-((2-(2H-1,2,3-triazol-2-yl)pyrimidin-4-yl)oxy)phenyl)propan-2-yl)phenoxy)cyclobutyl)amino)-2-(2,6-dioxopiperidin-3-yl)isoindolin-1,3-dione], the DC50 lay in the range of 11 to 100 nM.

Compound `CN[C@H]1CCCN(c2nccc(COc3ccc(C(C)(C)c4ccc(O[C@H]5C[C@@H](Nc6ccc7c(c6)C(=O)N(C6CCC(=O)NC6=O)C7=O)C5)cc4)cc3)n2)C1` (stereo partly shown) [Example 403] yielded a DC50 of 11 to 100 nM.

Staying with this assay, now noted: AR-v7 degradation in 22RV1 cells, 48 h, numeric values.
Take `CC(=O)c1nccc(COc2ccc(C(C)(C)c3ccc(OCC4CCCN(c5cccc6c5C(=O)N(C5CCC(=O)NC5=O)C6=O)C4)cc3)cc2)n1` (stereo not shown) [Example 303, 4-(3-((4-(2-(4-((2-acetylpyrimidin-4-yl)methoxy)phenyl)propan-2-yl)phenoxy)methyl)piperidin-1-yl)-2-(2,6-dioxopiperidin-3-yl)isoindolin-1,3-dione]: the DC50 is > 10000 nM.

In the case of `CC(C)(c1ccc(OCc2ccnc(NS(C)(=O)=O)n2)cc1)c1ccc(OC2CN(CCCCCOCCCCNc3ccc4c(c3)C(=O)N(C3CCC(=O)NC3=O)C4=O)C2)cc1` (stereo not shown) [Example 14], the DC50 is > 10000 nM.

With `CC(C)(c1ccc(OCCCCCCCCOCCCCNc2ccc3c(c2)C(=O)N(C2CCC(=O)NC2=O)C3=O)cc1)c1ccc(N2CCc3cnc(N4CC5(COC5)C4)nc3C2)cc1` (stereo not shown) [Example 65, 5-((4-((8-(4-(2-(4-(2-(2-oxa-6-azaspiro[3.3]heptan-6-yl)-5,8-dihydropyrido[3,4-d]pyrimidin-7(6H)-yl)phenyl)propan-2-yl)phenoxy)octyl)oxy)butyl)amino)-2-(2,6-dioxopiperidin-3-yl)isoindolin-1,3-dione], the half-maximal degradation concentration (DC50) was > 10000 nM.

As for `CC(C)(c1ccc(OCCCOCCCNc2ccc3c(c2)C(=O)N(C2CCC(=O)NC2=O)C3=O)cc1)c1ccc(OCc2ccnc(NS(C)(=O)=O)n2)cc1` (stereo not shown) [Example 18], the DC50 is > 10000 nM.

As to `CC(=O)c1ncc(COc2ccc(C(C)(C)c3ccc(OCCCCCCCCOCCCCNc4ccc5c(c4)C(=O)N(C4CCC(=O)NC4=O)C5=O)cc3)cc2)cn1` (stereo not shown) [Example 385, 5-((4-((8-(4-(2-(4-((2-acetylpyrimidin-5-yl)methoxy)phenyl)propan-2-yl)phenoxy)octyl)oxy)butyl)amino)-2-(2,6-dioxopiperidin-3-yl)isoindol-1,3-dione], the DC50 is > 2000 nM.

Regarding `CC(O)c1nccc(COc2ccc(C(C)(C)c3ccc(OCCCCCCCCOCCN4CCN(c5ccc6c(c5)C(=O)N(C5CCC(=O)NC5=O)C6=O)CC4)cc3)cc2)n1` (stereo not shown) [Example 300], the DC50 is > 10000 nM.

What is called DC50 is the concentration at which degradation of the target reaches its halfway point. Read a high DC50 as degradation only at high concentration.
